Results reported in US11712466B2, “Vaccine composition” (TOHOKU UNIVERSITY, priority 2017, dated 2023).
Entries after “also recorded” stand apart in the source; their conditions may differ. Ends that are not written are not given here.

Key:
[1] = test system: RH30 rhabdomyosarcoma cells; assay: In vitro wound migration method with serum of immunized mouse (RH30); format: cell-based, human; settings: 1% serum of mouse with increased anti-VASH2 titer after vaccine; 24 and 48 hours
Experimental: (§1) By using the serum derived from a mouse in which an increase in the antibody titer against the recombinant human VASH2 protein by administration of the MTG peptide vaccine was confirmed, the effect on the migration ability of various types of cancer cells was examined by an in vitro wound migration method. Mouse-derived Lewis lung cancer cells and human-derived RH30 rhabdomyosarcoma cells were added to a 6-well plate at 1.0×10^6 cells each. After 24 hours, a formed cell monolayer was wounded and linearly exfoliated. After the exfoliation, the medium was replaced with fresh 0.5% FBS+RPMI medium supplemented with 1% mouse serum. At 24 hours and 48 hours after the medium replacement, the image of the cell monolayer was captured using an IX71 inverted microscope (manufactured by Olympus Corporation), and a cell migration distance of each time zone was analyzed using ImageJ software. The analysis was carried out according to the following formula. Cell migration distance (%)={(A−B)/A}×100
(§2) A: Width of initial wound, B: Width of wound after 24 hours or 48 hours

[2] = test system: antigen peptide (peptide-conjugated BSA); assay: Antibody titer in blood of immunized mice by ELISA against antigen peptide; format: in vivo, mouse
From the text: C57BL/6J male mice aged 8 weeks were purchased from Charles River Laboratories Japan, Inc. After the delivery, the mice were reared in an environment where the room temperature and the light and dark cycles were maintained, and were provided with feed and water ad libitum. As a candidate sequence leading to activation of helper T cells by MHC class II, two peptide sequences: MTGSAADTHR (SEQ ID NO: 4; hereinafter, a peptide composed of the amino acid sequence is referred to as “MTG peptide”) and RRRQASPPRR (SEQ ID NO: 5; hereinafter, a peptide composed of the amino acid sequence is referred to as “RRR peptide”), each of which is not common to VASH1 in the VASH2 sequence were selected (FIG. 1). With respect to these peptides, peptide vaccines using KLH as a carrier were constructed. Note that for the conjugation of each peptide with KLH, a glutaraldehyde method was used. When the amount of the peptide introduced into KLH was measured for each of the obtained peptide vaccines, the amount of MTG was 66 to 70 nmol/mg of the conjugate, and the amount of RRR was 62 to 76 nmol/mg of the conjugate. Subsequently, 5 μg of KLH (control) and 20 μg of each of the KLH-antigen complexes were prepared with physiological saline so that the total amount was 50 μL, respectively, whereby KLH-mixed solutions were obtained. To each of the KLH-mixed solutions (50 μL), an equal amount of complete Freund's adjuvant was added. The obtained mixture was subcutaneously administered to the mice, whereby initial immunization was carried out. After 2 weeks from the administration, booster immunization was carried out by subcutaneously administering a mixture of each of the KLH-mixed solutions (50 μL) and an equal amount of incomplete Freund's adjuvant to the mice. Further, after 2 weeks from the booster immunization (after a total of 4 weeks), an increase in the antibody titer in the blood of each of the immunized mice was verified by ELISA.
The measurement of the antibody titer by ELISA was carried out as follows. After 2 weeks from the booster immunization (after a total of 4 weeks), the blood was collected from the facial vein of each of the immunized mice, and the serum separated from the blood was subjected to ELISA. By using 50 mM carbonate buffer, peptide-conjugated BSA was prepared at 10 μg/mL, and further a recombinant VASH2 protein was prepared at 1 μg/mL, each of which was added at 50 μL/well, and the resultant was left to stand overnight at 4° C. After the solution in each well was removed, 5% skim milk was added at 150 μL/well. […] After 30 minutes, the reaction was stopped by adding 0.5 N H2SO4 at 50 μL/well, and an absorbance (450 nm) was measured using a microplate reader.

Lewis lung cancer cells = assay: In vitro wound migration method with serum of immunized mouse (LLC); format: cell-based; settings: 1% serum of mouse with increased anti-VASH2 titer after vaccine; 24 and 48 hours
Experimental: as §1, §2

KPC mouse = assay: Life-extending effect in KPC mouse, spontaneous pancreatic cancer model; format: in vivo; settings: KPC mice n=8, 100 μg with Alhydrogel every two weeks; all KLH controls (n=7) died before 300 days
Experimental: To a KPC mouse (aged 8 weeks at the initial immunization) that is a spontaneous pancreatic cancer model, 100 μg of the MTG peptide vaccine was administered together with Alhydrogel (registered trademark) every two weeks, and the survival rate thereof was confirmed (n=8). A KPC mouse to which 100 μg of KLH was administered according to the same schedule was used as a control (n=7) (FIG. 13).

mSnail = assay: Gene expression in excised tumor tissue by real-time PCR, mSnail; format: in vivo, mouse; settings: tumor excised two weeks after implantation
Experimental: The mouse implanted with the tumor cells in Example 2 was sacrificed two weeks after implantation of the tumor cells, and a tumor was excised from the right axillary subcutaneous region. By using RNeasy Plus Kit (Qiagen, Inc.), extraction of the total RNA from the excised tumor and purification thereof were carried out. By using the obtained total RNA as a template, cDNA was synthesized by reverse transcription reaction. The cDNA was analyzed by performing real-time PCR using a mixed solution of the obtained cDNA and SYBR green (TAKARA BIO, Inc.).

K5 cells = assay: Tumor growth inhibitory effect, subcutaneous implant model of K5 cells; format: in vivo, mouse
Experimental: 100 μg of KLH (control) or 100 μg of the MTG peptide vaccine was prepared with physiological saline so that the total amount was 100 &L, respectively, whereby KLH-mixed solutions were obtained. To each of the KLH-mixed solutions (100 μL), an equal amount of Alhydrogel (registered trademark) was added. The obtained mixture (200 μL) was intradermally (ID) administered to C57BL/6Jx129SVJ mice aged 8 weeks, whereby initial immunization was carried out (0 day). After 2 weeks from the administration (14 days), booster immunization was carried out. Further, after 2 weeks from the booster immunization (28 days), K5 cells were implanted in each of the mice, whereby a subcutaneous implant model was prepared. In order to confirm that an anti-VASH2 antibody was induced in the mice, the blood was collected at 0 day, 14 day, and 28 day, and the antibody titer was confirmed by ELISA (FIG. 15).

“MTG peptide vaccine: MTG peptide MTGSAADTHR (SEQ ID NO: 4) conjugated with KLH as carrier by a glutaraldehyde method (also: conjugated with KLH by glutaraldehyde)” was tested, and the “cell migration, human-derived RH30 rhabdomyosarcoma cells” value [1] was “migration inhibitory effect”, the “antibody titer against the antigen peptide” value ([2]; Example 1: C57BL/6J mice, KLH-antigen complex s.c., Freund's adjuvant, serum 2 weeks after booster (total 4 weeks)) was “significant concentration-dependent increase” and the “production of an antibody specific to the antigen peptide” value ([2]; Example 6: C57BL/6J mice, 20 or 100 μg, Alhydrogel, day 28) was “promotes the production of an antibody”. The “induced antibody binding to the antigen peptide (MTG)” value ([2]; Example 8: C57BL/6Jx129SVJ mice, 100 μg, Alhydrogel, day 28) was “induced an antibody that binds to both”, the “cell migration, mouse-derived Lewis lung cancer cells” value (Lewis lung cancer cells) was “migration inhibitory effect” and the “mice survived over 300 days after birth” value (KPC mouse) was “at least 2 mice”. The “expression of mSnail (epithelial-mesenchymal transition marker) in tumor tissue” value (mSnail) was “dose-dependent expression inhibitory effect; also recorded: significantly inhibited depending on the dose”, the “tumor size (tumorigenesis), K5 cells, Experiment 1” value (K5 cells; C57BL/6Jx129SVJ mice n=2, 100 μg, 14 to 40 days after implantation) was “significant inhibition of tumorigenesis” and the “tumor size (tumorigenesis), K5 cells, Experiment 2” value (K5 cells; C57BL/6Jx129SVJ mice n=11, 100 μg, day 15 after implantation, vs KLH p=0.0002) was “tumorigenesis was significantly inhibited”.
